≈ marks a conversion by molar mass, not a printed value. Like-named read-outs stand apart in the source and are kept apart here. Where no end group is shown, it is not given here.
Legend:
[1] = system: human lung fibroblast cells (MRC-5), human embryonic kidney cells (HEK-293), human hepatic cells (HepaRG), HeKa cells; assay: 24 h cell viability assay (MTS); format: cell-based; details: triplicate
Protocol: The in vitro cytotoxicity of 8a and 8b was evaluated using human lung fibroblast cells (MRC-5), human embryonic kidney cells (HEK-293), human hepatic cells (HepaRG), and human epidermal keratinocytes (HEKa). Cells were seeded at 10,000 per well in 0.1 mL of media in 96-well plates 24 h prior to the experiment. Lung and kidney cells were seeded in DMEM medium containing FBS (10%). Liver cells were seeded in William’s E medium with the GlutaMAX supplement. Epidermal keratinocytes were seeded in a Dermal Cell Basal medium supplemented with a keratinocyte growth kit. The peptides were added to each well in triplicates at a variable concentration of 10–250 μg/mL and incubated for 24h at 37 °C in a humidified atmosphere of 5% CO2. After the incubation period, the MTS solution (20 μL) was added to each well. Then, the cells were incubated for 2 h at 37 °C, and the cell viability was determined by measuring the absorbance at 490 nm using a SpectraMaxM2 microplate spectrophotometer. The percentage of cell survival was calculated as [(OD value of cells treated with the test mixture of compounds) – (OD value of culture medium)]/[(OD value of control cells) – (OD value of culture medium)] × 100%.

E. coli (ATCC BAA-2452) = details: Gram-negative, NDM-1; CLSI microdilution, CAMHB, 37 °C, 24 h; highest MIC of three independent experiments in triplicate
Procedure, shortened: (§1)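 Broth microdilution per CLSI: overnight cultures diluted in cation-adjusted Mueller Hinton Broth to 10^6 CFU/mL, mixed with 2-fold serial peptide dilutions, incubated 37 °C for 24 h. MIC = lowest peptide concentration inhibiting growth. Three independent assays in triplicate.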

[2] = system: Bacillus subtilis (ATCC 6633)
Procedure, shortened: as §1

MRSA (ATCC BAA-1556) = details: for MIC, MRSA (ATCC BAA-1556), Control: MH media without salt ions or serum; for MIC, MRSA (ATCC BAA-1556), Control / MIC, MRSA (ATCC BAA-1556), MgCl2 / MIC, MRSA (ATCC BAA-1556), CaCl2 / MIC, MRSA (ATCC BAA-1556), KCl / MIC, MRSA (ATCC BAA-1556), NH4Cl / MIC, MRSA (ATCC BAA-1556), NaCl / MIC, MRSA (ATCC BAA-1556), FBS (25%): three independent experiments in triplicate; for MIC, MRSA (ATCC BAA-1556): broth microdilution (CLSI), CAMHB, 37 °C, 24 h; for MIC, MRSA (ATCC BAA-1556), MgCl2: media with 1 mM MgCl2; for MIC, MRSA (ATCC BAA-1556), CaCl2: media with 2 mM CaCl2; for MIC, MRSA (ATCC BAA-1556), KCl: media with 4.5 mM KCl; for MIC, MRSA (ATCC BAA-1556), NH4Cl: media with 6 mM NH4Cl; for MIC, MRSA (ATCC BAA-1556), NaCl: media with 150 mM NaCl; for MIC, MRSA (ATCC BAA-1556), FBS (25%): media with 25% fetal bovine serum
Procedure, shortened: as §1

[3] = system: A. baumannii (ATCC BAA1605); details: Gram-negative, footnote e ciprofloxacin (MDR in Table S3); CLSI microdilution, CAMHB, 37 °C, 24 h; highest MIC of three independent experiments in triplicate
Procedure, shortened: as §1

[4] = system: K. pneumonia (ATCC BAA-2470); details: Gram-negative, carbapenem-resistant; CLSI microdilution, CAMHB, 37 °C, 24 h; highest MIC of three independent experiments in triplicate
Procedure, shortened: as §1

[5] = system: P. aeruginosa (ATCC 10145)
Procedure, shortened: as §1

[6] = system: P. aeruginosa (ATCC BAA-1744); details: Gram-negative, resistant strain (marked a; imipenem resistant in Table S3); CLSI microdilution, CAMHB, 37 °C, 24 h; highest MIC of three independent experiments in triplicate
Procedure, shortened: as §1

E. coli (ATCC 25922) = details: for MIC, E. coli (ATCC 25922): broth microdilution (CLSI), CAMHB, 37 °C, 24 h
Procedure, shortened: as §1

[7] = system: Klebsiella pneumonia (ATCC 13883)
Procedure, shortened: as §1

[8] = system: Bacillus cereus (ATCC 13061)
Procedure, shortened: as §1

E. faecalis (ATCC 29212) = system: E. faecalis (ATCC 29212)
Procedure, shortened: as §1

[9] = system: S. pneumoniae (ATCC 700677); details: Gram-positive, multi-drug resistant (penicillin, tetracycline, erythromycin); CAMHB + 2.5% lysed horse blood, 37 °C, 24 h; highest MIC of three independent experiments in triplicate
Procedure, shortened: as §1

[10] = 10^6 CFU/mL, highest MIC of three independent experiments in triplicate
[11] = media with 4.5 mM KCl, three independent experiments in triplicate
[12] = media with 6 mM NH4Cl, three independent experiments in triplicate
[13] = Gram-negative, CLSI microdilution, CAMHB, 37 °C, 24 h, highest MIC of three independent experiments in triplicate
[14] = media with 1 mM MgCl2, three independent experiments in triplicate
[15] = media with 2 mM CaCl2, three independent experiments in triplicate
[16] = Gram-positive, CLSI microdilution, CAMHB, 37 °C, 24 h, highest MIC of three independent experiments in triplicate

Compound | MIC, E. coli (ATCC BAA-2452) (E. coli (ATCC BAA-2452)) | MIC, Bacillus subtilis (ATCC 6633) ([2]; ATCC 6633, 24 h) | MIC, MRSA (ATCC BAA-1556), Control (MRSA (ATCC BAA-1556)) | MIC, MRSA (ATCC BAA-1556) (MRSA (ATCC BAA-1556); [10]) | MIC, MRSA (ATCC BAA-1556), MgCl2 (MRSA (ATCC BAA-1556)) | MIC, MRSA (ATCC BAA-1556), CaCl2 (MRSA (ATCC BAA-1556)) | MIC, MRSA (ATCC BAA-1556), KCl (MRSA (ATCC BAA-1556)) | MIC, MRSA (ATCC BAA-1556), NH4Cl (MRSA (ATCC BAA-1556)) | MIC, MRSA (ATCC BAA-1556), NaCl (MRSA (ATCC BAA-1556)) | MIC, MRSA (ATCC BAA-1556), FBS (25%) (MRSA (ATCC BAA-1556)) | MIC, MRSA (ATCC BAA-1556) (MRSA (ATCC BAA-1556); value in parentheses (μM)) | MIC, A. baumannii (ATCC BAA1605) [3] | MIC, K. pneumonia (ATCC BAA-2470) [4] | MIC, P. aeruginosa (ATCC BAA-1744) [6] | MIC, E. coli (ATCC 25922), FBS (25%) (E. coli (ATCC 25922); ATCC 25922, 24 h) | MIC, E. coli (ATCC 25922), NaCl (E. coli (ATCC 25922); ATCC 25922, 24 h) | MIC, E. coli (ATCC 25922) (E. coli (ATCC 25922); [10]) | MIC, E. coli (ATCC 25922) (E. coli (ATCC 25922); value in parentheses (μM)) | MIC, S. pneumoniae (ATCC 700677) [9] | MIC, E. faecalis (ATCC 29212) (E. faecalis (ATCC 29212); [16]) | also measured
KWLKKWLKWWKK-NH2 [8b] | 6.2 µg/mL | 3.1 µg/mL | 3.1 µg/mL | 3.1 µg/mL | 6.2 µg/mL | 6.2 µg/mL | 6.2 µg/mL | 6.2 µg/mL | 12.5 µg/mL | 12.5 µg/mL | 1.76 µM | 3.1 µg/mL | 12.5 µg/mL | 6.2 µg/mL | 25 µg/mL | 25 µg/mL | 6.2 µg/mL | 3.53 µM | 12.5 µg/mL | – | cell viability at 250 μg/mL, except for skin cells ([1]; MRC-5, HEK-293, HepaRG, MTS): above 60%; cell viability at 50 μg/mL ([1]; all tested cells (MRC-5, HEK-293, HepaRG, HeKa), MTS): above 75%; MIC, P. aeruginosa (ATCC 10145) ([5]; ATCC 10145, 24 h): 6.2 µg/mL; MIC, E. coli (ATCC 25922), CaCl2 (E. coli (ATCC 25922); ATCC 25922, 24 h): 25 µg/mL; MIC, E. coli (ATCC 25922), Control (E. coli (ATCC 25922); ATCC 25922, 24 h): 6.2 µg/mL; MIC, E. coli (ATCC 25922), MgCl2 (E. coli (ATCC 25922); ATCC 25922, 24 h): 25 µg/mL; MIC, E. coli (ATCC 25922), KCl (E. coli (ATCC 25922); [11]): 12.5 µg/mL; MIC, E. coli (ATCC 25922), NH4Cl (E. coli (ATCC 25922); [12]): 12.5 µg/mL; MIC, Klebsiella pneumonia (ATCC 13883) [7, 13]: 12.5 µg/mL; MIC, Bacillus cereus (ATCC 13061) ([8]; ATCC 13061, 24 h): 3.1 µg/mL; MIC, E. faecalis (ATCC 29212) (E. faecalis (ATCC 29212); ATCC 29212, 24 h): 6.2 µg/mL
RWIRRWIRWWRR-NH2 [7a] | 12.5 µg/mL | 6.2 µg/mL | 6.2 µg/mL | 6.2 µg/mL | 6.2 µg/mL | 6.2 µg/mL | 12.5 µg/mL | 6.2 µg/mL | 12.5 µg/mL | 25 µg/mL | 3.22 µM | 12.5 µg/mL | 12.5 µg/mL | 12.5 µg/mL | 50 µg/mL | 25 µg/mL | 6.2 µg/mL | 3.22 µM | 25 µg/mL | 12.5 µg/mL | MIC, P. aeruginosa (ATCC 10145) [5, 13]: 12.5 µg/mL; MIC, E. coli (ATCC 25922), Control (E. coli (ATCC 25922); MH media without salt ions or serum, three independent experiments in triplicate): 6.2 µg/mL; MIC, E. coli (ATCC 25922), MgCl2 (E. coli (ATCC 25922); [14]): 12.5 µg/mL; MIC, E. coli (ATCC 25922), CaCl2 (E. coli (ATCC 25922); [15]): 12.5 µg/mL; MIC, E. coli (ATCC 25922), KCl (E. coli (ATCC 25922); [11]): 12.5 µg/mL; MIC, E. coli (ATCC 25922), NH4Cl (E. coli (ATCC 25922); [12]): 12.5 µg/mL; MIC, Klebsiella pneumonia (ATCC 13883) ([7]; ATCC 13883, 24 h): 25 µg/mL; MIC, Bacillus cereus (ATCC 13061) [8, 16]: 12.5 µg/mL
CCCCCCCCCC(=O)N[C@@H](Cc1c[nH]c2ccccc12)C(=O)N[C@H](CC(N)=O)C(=O)N[C@@H](CC(=O)O)C(=O)N[C@@H]1C(=O)NCC(=O)N[C@@H](CCCN)C(=O)N[C@@H](CC(=O)O)C(=O)N[C@H](C)C(=O)N[C@@H](CC(=O)O)C(=O)NCC(=O)N[C@H](CO)C(=O)N[C@@H]([C@H](C)CC(=O)O)C(=O)N[C@@H](CC(=O)c2ccccc2N)C(=O)O[C@@H]1C [daptomycin, reference compound] | – | – | 1.5 µg/mL | 1.5 µg/mL | 3.1 µg/mL (≈ 1.91 µM) | 3.1 µg/mL (≈ 1.91 µM) | 1.5 µg/mL (≈ 0.926 µM) | 1.5 µg/mL (≈ 0.926 µM) | 1.5 µg/mL (≈ 0.926 µM) | 3.1 µg/mL (≈ 1.91 µM) | 0.86 µM | – | – | – | – | – | – | – | 12.5 µg/mL | 6.2 µg/mL | cytotoxicity against kidney and liver cells ([1]; HEK293 and HPRGC10 (HepaRG), up to 250 μg/mL): negligible cytotoxicity; MIC, Bacillus subtilis (ATCC 6633) [2, 16]: 0.7 µg/mL; MIC, Bacillus cereus (ATCC 13061) [8, 16]: 1.5 µg/mL
KWIKKWIKWWKK-NH2 [7b] | 6.2 µg/mL | 3.1 µg/mL | 6.2 µg/mL | 6.2 µg/mL | 6.2 µg/mL | 12.5 µg/mL | 12.5 µg/mL | 12.5 µg/mL | 25 µg/mL | 25 µg/mL | 3.53 µM | 12.5 µg/mL | 25 µg/mL | 12.5 µg/mL | 50 µg/mL | 25 µg/mL | 6.2 µg/mL | 3.53 µM | 25 µg/mL | 12.5 µg/mL | MIC, P. aeruginosa (ATCC 10145) ([5]; ATCC 10145, 24 h): 6.2 µg/mL; MIC, E. coli (ATCC 25922), Control (E. coli (ATCC 25922); ATCC 25922, 24 h): 6.2 µg/mL; MIC, E. coli (ATCC 25922), KCl (E. coli (ATCC 25922); ATCC 25922, 24 h): 25 µg/mL; MIC, E. coli (ATCC 25922), NH4Cl (E. coli (ATCC 25922); ATCC 25922, 24 h): 25 µg/mL; MIC, E. coli (ATCC 25922), MgCl2 (E. coli (ATCC 25922); [14]): 12.5 µg/mL; MIC, E. coli (ATCC 25922), CaCl2 (E. coli (ATCC 25922); [15]): 12.5 µg/mL; MIC, Klebsiella pneumonia (ATCC 13883) ([7]; ATCC 13883, 24 h): 25 µg/mL; MIC, Bacillus cereus (ATCC 13061) ([8]; ATCC 13061, 24 h): 6.2 µg/mL
